Converted amounts (≈) assume the structure as drawn.
Columns and labels:
[1] = tested on: Leishmania donovani; conditions: cited from earlier work
[2] = tested on: Leishmania donovani amastigotes in RAW macrophage cells; assay: Antileishmanial activity against macrophage-amastigotes (MTT assay); format: cell-based; conditions: for IC50: Leishmania donovani, Macrophage, amastigotes in RAW macrophages, MTT, read-out: IC50 (μg/ml) ±SD amastigote; for Therapeutic Index (TC50/IC50) amastigotes: TC50 RAW / IC50 amastigote
Procedure: The RAW macrophage cells were infected with promastigotes at a density of 1:10 ratio, respectively for 12 hrs and the non-phagocytosed promastigotes and media removed by aspiration. The RAW macrophages cells containing the internalized amastigote cells were treated with the compounds to test for their growth inhibitory potentials as previously described. The 3-(4,5-Dimethylthiazol-2-yl)-2,5-diphenyltetrazolium bromide (MTT) assay was also used to determine the parasite viability. […] was measured with a Varioskan Lux Elisa plate reader at a wavelength of 570 nm.

[3] = tested on: Leishmania donovani promastigotes; assay: Growth kinetics and cytocidal/cytostatic (growth reversibility) assay; format: cell-based; conditions: 1 μg/ml, 120 hrs treatment, then 96 hrs in fresh media
Procedure: The compounds (at 1 μg/ml) were tested for their effects on the growth kinetic pattern against the promastigotes of L. donovani. The parasite cells (2 x 10^5 cells/ml) were incubated at 25° C in the presence of the test compounds in M199 supplemented with 10% FBS. Amphotericin B treated parasites (0–50 μg/ml) were used as the positive control while the untreated promastigotes in medium alone served as the negative control. Viable cells were counted every 24 hrs for a total of 120 hrs as indicated in previous studies.
The cytocidal/cytostatic effect of the test compounds were assessed by analyzing the treated and untreated parasites after 120 hrs of incubation. Cells were washed twice with fresh M199, resuspended in complete M199 media and incubated further for 96 hrs. The viable cells were then counted microscopically.

[4] = tested on: Leishmania donovani promastigotes; assay: Externalization of phosphatidylserine, Annexin V-FITC / PI flow cytometry; format: cell-based; conditions: 2x IC50, 24 hrs; for effect on externalization of phosphatidylserine (apoptotic potential): p-value = 0.9926
Procedure: A double staining of treated/ untreated promastigotes of Leishmania donovani (2 x 10^5 cells/ml) with Annexin V-FITC and Propidium Iodide (PI) was done to determine the apoptotic and necrotic effects of the some of the established cytocidal compounds amongst the eighteen MMV compounds studied. Treatment was set at 2x IC50 concentrations of the respective test compounds against a negative control of untreated promastigote cells in a 24 hrs incubation period. The cells were then prepared using the Annexin V-FITC apoptosis detection kit following the Sigma protocol (Catalog Number: APOAF). Further treatment and analysis of cells was done as shown previously.

[5] = tested on: Leishmania donovani promastigotes; assay: Antileishmanial activity against promastigotes (MTT assay); format: cell-based; conditions: for IC50: Leishmania donovani, 96 hrs at 25° C, MTT, mean of three experiments, read-out: IC50 (μg/ml) ±SD promastigote; for Therapeutic Index (TC50/IC50) promastigotes: TC50 RAW / IC50 promastigote
Text: Amphotericin B was used as a positive control. The 3-(4,5-Dimethylthiazol-2-yl)-2,5-diphenyltetrazolium bromide (MTT) assay was used to determine the parasite viability as previously described.

[6] = tested on: RAW 264.7 murine macrophage cell line; assay: Cytotoxicity against mammalian RAW macrophage cell line (MTT assay); conditions: 48 hrs, 50% cytotoxic concentration
Text: Here, amphotericin B was used as a positive control and the negative control was untreated RAW cell line.

[7] = tested on: Leishmania donovani promastigotes; assay: Morphological and mitochondrion effects by fluorescence microscopy (DAPI, MitoTracker); format: cell-based
Procedure: Their mitochondrial integrity were analyzed using a slightly modified DAPI and Mitotracker dye protocol as described by Amisigo and colleagues.

[8] = tested on: O+ human red blood cells; assay: Haemolytic potential; conditions: 2% haematocrit, up to 100 μg/ml
Procedure: The compounds were tested against the O^+ human red blood cells (obtained from the Malaria laboratory of WACCBIP) at a density of 2% haematocrit for their ability to lyse erythrocytes upon incubation. Here, a concentration of up to 100 μg/ml of compounds was used, and the 50% haemolytic concentration (HC50) of the compounds were determined by analysis of dose-response curves as described.

[9] = tested on: Leishmania donovani promastigotes; assay: Cell cycle analysis by flow cytometry; format: cell-based; conditions: 2x IC50, 24 hrs, versus untreated
Procedure: The analysis was done using the protocol as designed in the Guava cell cycle reagent manual (catalog No. 4500–0220). […] Both treated and untreated Leishmania cells were incubated for 24 hrs, samples read using a flow cytometer (BD LSR Fortessa X-20 analyzer BD Biosciences), and the respective cell counts analyzed in the G0/G1, S and G2/M Phases. Data generated was further analyzed using the FlowJo V10 software.

[10] = tested on: Leishmania donovani promastigotes; assay: ROS generation in treated promastigotes (H2DCFDA); format: cell-based; conditions: 100, 50 or 25 μM, 72 hrs
Procedure: The degree of reactive oxygen species (ROS) production in treated promastigote and amastigote cells of L. donovani were assessed using the H2DCFDA (2’,7’-dichlorodihydrofluorescein diacetate) rich fluorescent dye (MAK145 Sigma-Aldrich) ROS detection kit. […] Amoxicillin was used as a positive control for pro-oxidative generation while Vitamin C was used as a positive control for anti-oxidative potential. The treated and untreated cells were then suspended in PBS, washed, and resuspended in PBS, then incubated with the ROS detection master mix for 1 hr as instructed by the protocol. The cells were analyzed for intracellular ROS generation by measuring the fluorescence intensity which is proportional to the ROS production level using the Varioskan Lux Elisa microplate reader (Thermo Fischer Scientific, USA) at a wavelength of 605 nm.

[11] = tested on: Leishmania donovani; design: method as in PMID 33268145; conditions: dosed at 50 mg/kg, mouse model of visceral leishmaniasis; cited from earlier work

Compound: C1CCCC1.CN(CCn1cc(C2CCCC2)nn1)c1ccnc2cc(Cl)ccc12.I.[Fe] [CQFC1]
- efficacy among water-soluble ferrocenylquinoline derivatives [1]: most efficacious of the molecules

Compound: CC1COC(Cn2cncn2)(c2ccc(Oc3ccc(Cl)cc3)cc2Cl)O1 (stereo not shown) [Compound C06A, Difenoconazole, reference compound]
- IC50 [2]: 4.6 ± 0.004 µg/mL (≈ 11.3 µM)
- Therapeutic Index (TC50/IC50) amastigotes [2]: 21.74
- cytocidal/cytostatic effect upon drug withdrawal [3]: cytocidal effect
- more necrotic cells compared to negative control [4]: ~17%
- effect on externalization of phosphatidylserine (apoptotic potential) [4]: none of the compounds showed any significant effects
- IC50 [5]: 0.21 ± 0.008 µg/mL (≈ 0.517 µM)
- Therapeutic Index (TC50/IC50) promastigotes [5]: 476.19
- TC50 (μg/ml) ±SD RAW [6]: >100 µg/mL
- cells with lost kinetoplast DNA and enlarged nuclear DNA ([7]; 2x IC50, 24 hrs): 60%
- morphological / mitochondrial changes after 72 hrs ([7]; 2x IC50, 72 hrs): parasite clearance in most fields
- HC50 [8]: >100 µg/mL
- increase in parasites at the S phase [9]: 1.5 fold

Compound: Cc1noc(C)c1COc1cccc(C(=O)N=c2[nH]cccc2C)c1 [Compound D05A]
- IC50 [2]: 3.8 ± 0.03 µg/mL (≈ 11.3 µM)
- Therapeutic Index (TC50/IC50) amastigotes [2]: 26.32
- cytocidal/cytostatic effect upon drug withdrawal [3]: cytocidal effect
- more necrotic cells compared to negative control [4]: about 6.5%
- effect on externalization of phosphatidylserine (apoptotic potential) [4]: none of the compounds showed any significant effects
- IC50 [5]: 0.2 ± 0.02 µg/mL (≈ 0.593 µM)
- Therapeutic Index (TC50/IC50) promastigotes [5]: 500
- TC50 (μg/ml) ±SD RAW [6]: >100 µg/mL
- morphological / mitochondrial changes after 24 hrs ([7]; 2x IC50, 24 hrs): did not show any obvious abnormalities
- morphological / mitochondrial changes after 72 hrs ([7]; 2x IC50, 72 hrs): most of the fields had total parasite clearance
- nuclear/ kinetoplast DNA degenerated ([7]; 2x IC50, 72 hrs): 90%
- ROS generation effect in promastigotes [10]: anti-oxidative effect
- HC50 [8]: >100 µg/mL
- increase in parasites at the S phase [9]: 1.5 fold

Compound: O=[N+]([O-])c1cn2c(n1)O[C@@H](COc1ccc(-c3ccc(F)cc3)nc1)CC2 [DNDI-0690]
- parasite burden reduction [11]: 96%

— paper PMC8608343 (PLoS ONE, 2021)
